US12378250B2, “Tricyclic compound as IRAK4 inhibitor” (KOREA RESEARCH INSTITUTE OF CHEMICAL TECHNOLOGY, priority 2018, dated 2025)

Target: T1, IRAK4 enzyme (Homo sapiens, UniProt Q9NWZ3)
T1 sequence (Q9NWZ3 1-460): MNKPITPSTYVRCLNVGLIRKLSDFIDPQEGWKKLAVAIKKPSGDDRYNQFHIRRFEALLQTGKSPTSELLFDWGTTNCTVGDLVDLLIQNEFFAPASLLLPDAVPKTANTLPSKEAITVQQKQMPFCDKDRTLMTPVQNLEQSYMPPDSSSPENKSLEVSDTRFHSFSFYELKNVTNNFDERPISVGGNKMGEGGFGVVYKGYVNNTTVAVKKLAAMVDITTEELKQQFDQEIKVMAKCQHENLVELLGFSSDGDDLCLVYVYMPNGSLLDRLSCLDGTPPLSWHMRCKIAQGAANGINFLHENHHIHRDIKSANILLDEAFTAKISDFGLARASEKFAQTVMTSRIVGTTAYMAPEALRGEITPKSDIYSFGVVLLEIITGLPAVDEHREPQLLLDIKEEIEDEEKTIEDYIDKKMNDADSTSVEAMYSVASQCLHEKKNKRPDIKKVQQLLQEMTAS
Experiment: IRAK4 enzyme inhibition degree (bead-based kinase assay, peptide substrate BMKC-2, 100 μM ATP)
Type: biochemical
Conditions: for inhibition at 1 µM: compound 1 μM
Procedure: 2.5 μl of a compound diluted to 4-fold of a final concentration was put into a 384-well white plate (low volume). 2.5 μl of 0.4 ng/μl IRAK4 enzyme was added thereto, and the resulting mixture was totally reacted for 10 minutes. 5 μl of a mixed liquid of a 6 μM peptide substrate (BMKC-2) and 100 μM ATP was added thereto, the resulting mixture was reacted at room temperature for 60 minutes, then 2.5 μl of 10 mM EDTA was added thereto, and the resulting mixture was reacted again for 10 minutes. 40 nM anti-phospho Thr antibody was aliquoted to 2.5 μl each, 5 μl of a mixed solution of a 160 μl/ml acceptor bead and a donor bead was added thereto, and then the resulting mixture was reacted at room temperature for 60 minutes. Fluorescence signals were measured using a bead experimental apparatus (Fusion alpha-FP Microplate Reader, Perkin Elmer Inc.).
From the detected signal, an activity inhibition rate [% inhibition degree=(the average value of a compound−the average value of a negative control)/(the average value of a positive control−the average value of a negative control)×100] was calculated, and is shown in [Table 1]. Further, a % inhibition degree of the compound at each concentration was obtained, and then a 50% inhibition concentration (IC50 value) was analyzed by a non-linear regression analysis.

O=c1[nH]nc(-c2ccc3[nH]c4ncnc(N[C@H]5CC[C@H](N6CCOCC6)CC5)c4c3c2)[nH]1 [Compound 6baf, 5-(4-((trans-4-morpholinocyclohexyl)amino)-9H-pyrimido[4,5-b]indol-6-yl)-2,4-dihydro-3H-1,2,4-triazole-3-one]
IC50: 509 nM
inhibition at 1 µM: 70%

c1nc(N[C@H]2CC[C@H](N3CCOCC3)CC2)c2c(n1)[nH]c1ccc(-c3nnc[nH]3)cc12 [Compound 6baa, N-(trans-4-morpholinocyclohexyl)-6-(4H-1,2,4-triazol-3-yl)-9H-pyrimido[4,5-b]indole-4-amine]
IC50: 308 nM
inhibition at 1 µM: 70%

Cc1nnc(-c2ccc3[nH]c4ncnc(N[C@H]5CC[C@H](N6CCOCC6)CC5)c4c3c2)o1 [Compound 6bae, 6-(5-methyl-1,3,4-oxadiazol-2-yl)-N-(trans-4-morpholinocyclohexyl)-9H-pyrimido[4,5-b]indole-4-amine]
IC50: 8 nM
inhibition at 1 µM: 94%

CS(=O)(=O)N1CCC(n2cc(-c3ccc4[nH]c5ncnc(N[C@H]6CC[C@H](N7CCOCC7)CC6)c5c4c3)cn2)CC1 [Compound 6aas, 6-(1-(1-(methylsulfonyl)piperidin-4-yl)-1H-pyrazol-4-yl)-N-(trans-4-morpholinocyclohexyl)-9H-pyrimido[4,5-b]indole-4-amine]
IC50: 50 nM
inhibition at 1 µM: 79%

Cn1cc(-c2ccc3[nH]c4ncnc(NCCN5CCOCC5)c4c3c2)cn1 [Compound 6ada, 6-(1-methyl-1H-pyrazol-4-yl)-N-(2-morpholinoethyl)-9H-pyrimido[4,5-b]indole-4-amine]
IC50: 861 nM
inhibition at 1 µM: 53%

CC(C)(C)OC(=O)N1CCC(n2cc(-c3ccc4[nH]c5ncnc(N[C@H]6CC[C@H](N7CCOCC7)CC6)c5c4c3)cn2)CC1 [Compound 6aaq, tert-butyl 4-(4-(4-((trans-4-morpholinocyclohexyl)amino)-9H-pyrimido[4,5-b]indol-6-yl)-1H-pyrazol-1-yl)piperidine-1-carboxylate]
IC50: 565 nM
inhibition at 1 µM: 59%

c1nc(N[C@H]2CC[C@H](N3CCOCC3)CC2)c2c(n1)[nH]c1ccc(-c3nnc4n3CCC4)cc12 [Compound 6bad, 6-(6,7-dihydro-5H-pyrrolo[2,1-c][1,2,4]triazol-3-yl)-N-(trans-4-morpholinocyclohexyl)-9H-pyrimido[4,5-b]indole-4-amine]
IC50: 928 nM
inhibition at 1 µM: 52%

N#Cc1cc(F)cc(-c2ccc3[nH]c4ncnc(N[C@H]5CC[C@H](N6CCOCC6)CC5)c4c3c2)c1 [Compound 6aap, 3-fluoro-5-(4-((trans-4-morpholinocyclohexyl)amino)-9H-pyrimido[4,5-b]indol-6-yl) benzonitrile]
IC50: 780 nM
inhibition at 1 µM: 56%

N#Cc1cncc(-c2ccc3[nH]c4ncnc(N[C@H]5CC[C@H](N6CCOCC6)CC5)c4c3c2)c1 [Compound 6aao, 5-(4-((trans-4-morpholinocyclohexyl)amino)-9H-pyrimido[4,5-b]indol-6-yl) nicotinonitrile]
IC50: 63 nM
inhibition at 1 µM: 74%

COC(=O)c1ccc2c(c1)[nH]c1ncnc(Nc3ccc(N4CCOCC4)cc3)c12 [Compound 5db, methyl 4-((4-morpholinophenyl)amino)-9H-pyrimido[4,5-b]indole-7-carboxylate]
inhibition at 1 µM: < 1%

Fc1cncc(-c2ccc3[nH]c4ncnc(N[C@H]5CC[C@H](N6CCOCC6)CC5)c4c3n2)c1 [Compound 23a, 6-(5-fluoropyridin-3-yl)-N-(trans-4-morpholinocyclohexyl)-9H-pyrido[2′,3′:4,5]pyrrolo[2,3-d]pyrimidin-4-amine]
IC50: 79 nM
inhibition at 1 µM: 91%

Cn1cc(-c2ccc3[nH]c4ncnc(NCCCN5CCOCC5)c4c3c2)cn1 [Compound 6aea, 6-(1-methyl-1H-pyrazol-4-yl)-N-(3-morpholinopropyl)-9H-pyrimido[4,5-b]indole-4-amine]
IC50: 1530 nM
inhibition at 1 µM: 34%

c1nc(N[C@H]2CC[C@H](N3CCOCC3)CC2)c2c(n1)[nH]c1ccc(-c3cnn(C4CCNCC4)c3)cc12 [Compound 6aar, N-(trans-4-morpholinocyclohexyl)-6-(1-(piperidin-4-yl)-1H-pyrazol-4-yl)-9H-pyrimido[4,5-b]indole-4-amine]
IC50: 137 nM
inhibition at 1 µM: 78%

Cc1nnc(-c2ccc3[nH]c4ncnc(N[C@H]5CC[C@H](N6CCOCC6)CC5)c4c3c2)[nH]1 [Compound 6bab, 6-(5-methyl-4H-1,2,4-triazol-3-yl)-N-(trans-4-morpholinocyclohexyl)-9H-pyrimido[4,5-b]indole-4-amine]
IC50: 210 nM
inhibition at 1 µM: 86%

CCOC(=O)c1ccc2[nH]c3ncnc(Nc4ccc(OC)cc4)c3c2c1 [Compound 5bc, ethyl 4-((4-methoxyphenyl)amino)-9H-pyrimido[4,5-b]indole-6-carboxylate]
inhibition at 1 µM: 9%

COC(=O)c1ccc2c(c1)[nH]c1nc(-c3cccc([N+](=O)[O-])c3)nc(N[C@H]3CC[C@H](N4CCOCC4)CC3)c12 [Compound 11b, methyl 4-((trans-4-morpholinocyclohexyl)amino)-2-(3-nitrophenyl)-9H-pyrimido[4,5-b]indole-7-carboxylate]
inhibition at 1 µM: 10%

Cn1cc(-c2ccc3[nH]c4ncnc(OCCN5CCOCC5)c4c3c2)cn1 [Compound 6aha, 4-(2-((6-(1-methyl-1H-pyrazol-4-yl)-9H-pyrimido[4,5-b]indol-4-yl)oxy)ethyl)morpholine]
IC50: 1040 nM
inhibition at 1 µM: 41%

Cn1cnnc1-c1ccc2[nH]c3ncnc(N[C@H]4CC[C@H](N5CCOCC5)CC4)c3c2c1 [Compound 6bac, 6-(4-methyl-4H-1,2,4-triazol-3-yl)-N-(trans-4-morpholinocyclohexyl)-9H-pyrimido[4,5-b]indole-4-amine]
IC50: 842 nM
inhibition at 1 µM: 60%

Cn1cc(-c2ccc3[nH]c4ncnc(NCCN5CCN(C(=O)OC(C)(C)C)CC5)c4c3c2)cn1 [Compound 6afa, tert-butyl 4-(2-((6-(1-methyl-1H-pyrazol-4-yl)-9H-pyrimido[4,5-b]indol-4-yl)amino)ethyl)piperazine-1-carboxylate]
IC50: 1050 nM
inhibition at 1 µM: 36%
